Results as given in PMC4308718 (Nature Communications, 2015).

Assays:
AtPHT4;4 = target: T1, AtPHT4;4 (Arabidopsis thaliana, UniProt Q8GX78); test: inhibition of […]-ascorbate uptake into proteoliposomes, […] min; assay type: biochemical; conditions: 1 and 10 μM inhibitor; 100 μM ascorbate; 2 μM valinomycin; pH 7.0; 27 °C
T1 construct: gene PHT4; cDNA from ATG; His-tag and soluble alpha-helix protein (beta) at both ends, beta-pET-28a(+)-beta; E. coli C43(DE3); purified by Ni-NTA; proteoliposomes
T1 sequence (Q8GX78 1-541): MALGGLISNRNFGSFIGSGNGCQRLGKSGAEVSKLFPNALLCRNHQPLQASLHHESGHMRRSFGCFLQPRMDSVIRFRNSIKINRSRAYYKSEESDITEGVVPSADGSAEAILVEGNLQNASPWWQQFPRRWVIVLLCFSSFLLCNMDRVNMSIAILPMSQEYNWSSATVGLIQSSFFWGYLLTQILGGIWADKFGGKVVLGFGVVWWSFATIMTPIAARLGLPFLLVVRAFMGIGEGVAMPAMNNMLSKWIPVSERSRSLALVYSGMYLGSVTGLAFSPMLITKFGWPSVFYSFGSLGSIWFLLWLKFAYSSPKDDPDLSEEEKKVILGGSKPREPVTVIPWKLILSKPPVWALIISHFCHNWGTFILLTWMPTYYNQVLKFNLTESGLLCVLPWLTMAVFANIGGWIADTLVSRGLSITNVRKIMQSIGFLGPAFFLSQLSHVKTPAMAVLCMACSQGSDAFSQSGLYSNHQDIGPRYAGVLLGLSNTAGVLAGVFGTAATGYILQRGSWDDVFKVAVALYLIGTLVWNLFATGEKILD

AtPHT4;3 = target: T2, AtPHT4;3 (Arabidopsis thaliana, UniProt Q66GI9); conditions: labelled compound (32P); 100 μM phosphate; 0.1 M sodium acetate; pH 7.0
T2 construct: gene ANTR4
T2 sequence (Q66GI9 whole entry): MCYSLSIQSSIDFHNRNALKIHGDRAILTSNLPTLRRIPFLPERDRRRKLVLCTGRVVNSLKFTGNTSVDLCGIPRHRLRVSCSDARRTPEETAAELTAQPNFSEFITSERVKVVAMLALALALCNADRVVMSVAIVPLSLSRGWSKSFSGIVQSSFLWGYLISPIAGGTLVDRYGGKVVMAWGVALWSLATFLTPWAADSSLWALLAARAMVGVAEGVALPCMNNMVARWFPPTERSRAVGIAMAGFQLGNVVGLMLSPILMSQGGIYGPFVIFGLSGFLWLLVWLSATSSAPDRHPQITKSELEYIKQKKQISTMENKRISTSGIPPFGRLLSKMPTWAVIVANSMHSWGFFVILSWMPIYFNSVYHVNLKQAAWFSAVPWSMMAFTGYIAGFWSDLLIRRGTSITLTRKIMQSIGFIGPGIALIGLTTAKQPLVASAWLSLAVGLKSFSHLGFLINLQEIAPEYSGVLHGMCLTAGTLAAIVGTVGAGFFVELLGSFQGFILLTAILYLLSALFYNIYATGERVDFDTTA

AtPHT4;6 = target: T3, AtPHT4;6 (Arabidopsis thaliana, UniProt Q9FKV1); conditions: labelled compound (32P); 100 μM phosphate; 0.1 M sodium acetate; pH 7.0
T3 construct: gene ANTR5
T3 sequence (Q9FKV1 whole entry): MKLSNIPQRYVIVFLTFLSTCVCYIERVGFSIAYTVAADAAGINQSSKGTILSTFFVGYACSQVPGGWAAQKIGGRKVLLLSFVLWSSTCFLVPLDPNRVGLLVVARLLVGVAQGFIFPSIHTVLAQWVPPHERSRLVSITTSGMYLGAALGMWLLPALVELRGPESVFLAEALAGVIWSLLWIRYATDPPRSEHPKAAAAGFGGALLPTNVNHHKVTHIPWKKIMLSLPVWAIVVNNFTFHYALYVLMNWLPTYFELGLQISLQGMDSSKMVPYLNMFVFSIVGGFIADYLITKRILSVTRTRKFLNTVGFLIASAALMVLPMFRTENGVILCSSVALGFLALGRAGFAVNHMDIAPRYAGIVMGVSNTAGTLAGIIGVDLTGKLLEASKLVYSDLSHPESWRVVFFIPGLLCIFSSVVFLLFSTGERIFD

AtPHT4;5 = target: T4, AtPHT4;5 (Arabidopsis thaliana, UniProt Q3E9A0); conditions: labelled compound (32P); 100 μM phosphate; 0.1 M sodium acetate; pH 7.0
T4 construct: gene ANTR6
T4 sequence (Q3E9A0 whole entry): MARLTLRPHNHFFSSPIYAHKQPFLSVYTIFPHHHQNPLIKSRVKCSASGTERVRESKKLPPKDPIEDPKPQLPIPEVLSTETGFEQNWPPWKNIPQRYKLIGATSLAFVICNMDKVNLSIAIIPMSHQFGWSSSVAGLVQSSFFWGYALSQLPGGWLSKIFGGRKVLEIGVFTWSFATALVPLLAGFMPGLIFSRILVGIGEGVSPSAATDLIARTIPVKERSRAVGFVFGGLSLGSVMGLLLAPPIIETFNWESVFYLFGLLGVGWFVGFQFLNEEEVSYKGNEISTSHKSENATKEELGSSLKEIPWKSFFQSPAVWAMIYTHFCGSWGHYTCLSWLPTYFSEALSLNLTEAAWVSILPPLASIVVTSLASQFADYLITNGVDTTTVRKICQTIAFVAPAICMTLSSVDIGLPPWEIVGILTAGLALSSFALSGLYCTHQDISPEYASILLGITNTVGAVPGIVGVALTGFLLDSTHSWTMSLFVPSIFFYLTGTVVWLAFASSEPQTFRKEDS

purified protein = substrate: O=C1O[C@H]([C@@H](O)CO)C(O)=C1O; test: purified protein; conditions: labelled compound (14C), valinomycin-induced inside-positive membrane potential, 4 mM KCl, pH 7.0, 27 °C

**Q.** `O=S(=O)(O)c1cc(N=C=S)ccc1/C=C/c1ccc(N=C=S)cc1S(=O)(=O)O` [4,4′-diisothiocyano-2,2′-stilbenedisulphonic acid] was tested. Which “inhibition of 14C-ascorbate uptake into proteoliposomes, 1 min” value (AtPHT4;4) did it give?
**A.** Its value is “typical inhibitors of mammalian SLC17 family transporters, inhibited ascorbate uptake”.

**Q.** How did the “inhibition of 14C-ascorbate uptake into proteoliposomes, 1 min” value (AtPHT4;4) turn out when `Cc1cc(-c2ccc(/N=N/c3ccc4c(S(=O)(=O)O)cc(S(=O)(=O)O)c(N)c4c3O)c(C)c2)ccc1/N=N/c1ccc2c(S(=O)(=O)O)cc(S(=O)(=O)O)c(N)c2c1O` [Evans blue] was run?
**A.** The value was “typical inhibitors of mammalian SLC17 family transporters, inhibited ascorbate uptake”.

**Q.** For `O=P(O)(O)O` [inorganic phosphate], which “Na+-driven 32P-phosphate uptake into proteoliposomes, 2 min” value (AtPHT4;3) is on record?
**A.** The value was “Na^+/Pi transport activity was detected in proteoliposomes containing all of these transporters”.

**Q.** What about the “Na+-driven 32P-phosphate uptake into proteoliposomes, 2 min” value (AtPHT4;6) of the same molecule?
**A.** Its value is “Na^+/Pi transport activity was detected in proteoliposomes containing all of these transporters”.

**Q.** And the “Na+-driven 32P-phosphate uptake into proteoliposomes, 2 min” value (AtPHT4;5)?
**A.** The value was “Na^+/Pi transport activity was detected in proteoliposomes containing all of these transporters”.

B1: AtPHT4;4 (Arabidopsis thaliana) (protein)
chain: MALGGLISNRNFGSFIGSGNGCQRLGKSGAEVSKLFPNALLCRNHQPLQASLHHESGHMRRSFGCFLQPRMDSVIRFRNSIKINRSRAYYKSEESDITEGVVPSADGSAEAILVEGNLQNASPWWQQFPRRWVIVLLCFSSFLLCNMDRVNMSIAILPMSQEYNWSSATVGLIQSSFFWGYLLTQILGGIWADKFGGKVVLGFGVVWWSFATIMTPIAARLGLPFLLVVRAFMGIGEGVAMPAMNNMLSKWIPVSERSRSLALVYSGMYLGSVTGLAFSPMLITKFGWPSVFYSFGSLGSIWFLLWLKFAYSSPKDDPDLSEEEKKVILGGSKPREPVTVIPWKLILSKPPVWALIISHFCHNWGTFILLTWMPTYYNQVLKFNLTESGLLCVLPWLTMAVFANIGGWIADTLVSRGLSITNVRKIMQSIGFLGPAFFLSQLSHVKTPAMAVLCMACSQGSDAFSQSGLYSNHQDIGPRYAGVLLGLSNTAGVLAGVFGTAATGYILQRGSWDDVFKVAVALYLIGTLVWNLFATGEKILD
**Q.** Which Km (purified protein) does the source give for B1 here?
**A.** Its Km is 1200 µM.
